PMC9296036, “A peptide interfering with the dimerization of oncogenic KITENIN protein and its stability suppresses colorectal tumour progression” (Clinical and Translational Medicine, 2022)
Ends that are not written are not given here.

Assay: Detection of KDIP and truncated forms in tumour and liver tissue by LC-MS/MS (MRM) after intravenous injection
Assay type: in vivo, mouse
Details: tissues collected 20 min after fifth intravenous injection of KDIP 5 mg/kg, below the limit of detection
Description: At 20 min after fifth intravenous injection of KDIP, tumour and liver tissues were collected, immediately frozen using liquid nitrogen and ground with a pestle and mortar. One part of resultant powder by weight was homogenized with two parts of lysis buffer containing 8‐M urea, 25‐mM Tris–HCl (pH 8.5) by volume and was placed in Eppendorf tubes. This lysate was sonicated three times for 2 s with 2‐s intervals of rest at 20% amplitude on ice. Insoluble debris was removed by obtaining supernatant after centrifugation at 14 000 g, 4°C for 15 min.
Peptide extraction from serum or tissue lysate was performed by solid‐phase extraction using Oasis HLB Cartridge 1‐cm^3 (30 mg). HLB cartridges were conditioned using ACN (1 ml) and 50% ACN, .5% FA (1 ml), followed by equilibration using .5% FA (2 ml). A volume of 10‐μl serum and 20 μl of tissue lysate were added by .5% FA to be 1 ml and were loaded on equilibrated cartridges. Cartridges were washed with .5% FA (3 ml), and then peptide was eluted by 50% ACN, .5% FA (500 μl). Eluates were vacuum‐dried using Speed‐Vac and were stored at −80°C until use. Dried samples were reconstituted in .5% FA 50 and 5 μl of sample was loaded on column for LC–MS/MS analysis.
Each sample was analysed using an Agilent 1100 Series high‐performance liquid chromatography pump (Agilent Technologies, USA) coupled to an LTQ linear ion trap mass spectrometer (Thermo Finnigan, USA). Separation of peptide was carried out on a homemade C18‐fused silica column (100‐μm internal diameter) with nano‐electrospray ionization interface. […] Peptide was quantified by multiple reaction monitoring (MRM) in positive ion mode, with a spray voltage of 2.3 kV. […] Furthermore, truncated forms ([…], […]) of KDIP that were detected during stability test were also analysed by following transitions: 468.5 → 404.8 (b16 ^+5), 468.5 → 444.85 (b18 ^+5), 468.5 → 505.7 (b16 ^+4), 468.5 → 551.35 (b18 + H2O^+4), 468.5 → 555.7 (b18 ^+4), 528.45 → 448.85 (b14 ^+4), 528.45 → 499.0 (b16 ^+4), 528.45 → 598.15 (b14 ^+3), 528.45 → 659.25 (b16 + H2O^+3) and 528.45 → 664.95 (b16 ^+3). […]

detection in regressed tumour tissues or liver by mass spectrometry: not detected
Sequence: YARVRRRGPRRWRLVSDEAV [KDIP]
